Experimental data reported in ChEMBL document CHEMBL3046754, “New brassinosteroid analogs having nitrogenated functionalities at C3 to provide more information about the brassinosteroidreceptor interaction” (2004).

Experiments:
Type in all cases: functional
Oryza sativa [1] = test: Growth regulating activity in Oryza sativa (rice) Bahia cultivar seedlings assessed as interior angle between leaf lamina of second leaf and its leaf sheath at 1 ug/plant applied onto second lamina joint of plant sheath measured after 2 days by Oryza sativa lamina inclination test
Oryza sativa [2] = test: Growth regulating activity in Oryza sativa (rice) Bahia cultivar seedlings assessed as interior angle between leaf lamina of second leaf and its leaf sheath at 0.01 ug/plant applied onto second lamina joint of plant sheath measured after 2 days by Oryza sativa lamina inclination test
Oryza sativa [3] = test: Growth regulating activity in Oryza sativa (rice) Bahia cultivar seedlings assessed as interior angle between leaf lamina of second leaf and its leaf sheath at 0.05 ug/plant applied onto second lamina joint of plant sheath measured after 2 days by Oryza sativa lamina inclination test
Oryza sativa [4] = test: Growth regulating activity in Oryza sativa (rice) Bahia cultivar seedlings assessed as interior angle between leaf lamina of second leaf and its leaf sheath at 0.1 ug/plant applied onto second lamina joint of plant sheath measured after 2 days by Oryza sativa lamina inclination test
Oryza sativa [5] = test: Growth regulating activity in Oryza sativa (rice) Bahia cultivar seedlings assessed as interior angle between leaf lamina of second leaf and its leaf sheath at 0.5 ug/plant applied onto second lamina joint of plant sheath measured after 2 days by Oryza sativa lamina inclination test
Oryza sativa [6] = test: Growth regulating activity in Oryza sativa (rice) Bahia cultivar seedlings assessed as interior angle between leaf lamina of second leaf and its leaf sheath at 0.02 ug/plant applied onto second lamina joint of plant sheath measured after 2 days by Oryza sativa lamina inclination test

Compound	Activity (Oryza sativa [1]) [degree]	Activity (Oryza sativa [2]) [degree]	Activity (Oryza sativa [3]) [degree]	Activity (Oryza sativa [4]) [degree]	Activity (Oryza sativa [5]) [degree]	Activity (Oryza sativa [6]) [degree]
CC[C@@H](C(C)C)[C@H](O)[C@@H](O)[C@@H](C)[C@H]1CC[C@H]2[C@@H]3COC(=O)[C@H]4C[C@H](N)CC[C@]4(C)[C@H]3CC[C@]12C	5	–	–	–	–	–
CC[C@@H](C(C)C)[C@@H](O)[C@H](O)[C@@H](C)[C@H]1CC[C@H]2[C@@H]3CC(=O)[C@H]4C[C@H](O)CC[C@]4(C)[C@H]3CC[C@]12C	85	46	65	59	76	–
CC[C@@H](C(C)C)[C@@H](O)[C@H](O)[C@@H](C)[C@H]1CC[C@H]2[C@@H]3COC(=O)[C@H]4C[C@H](N)CC[C@]4(C)[C@H]3CC[C@]12C	55	–	–	16	31	–
CC[C@@H](C(C)C)[C@H](O)[C@@H](O)[C@@H](C)[C@H]1CC[C@H]2[C@@H]3CC(=O)[C@H]4C[C@H](N)CC[C@]4(C)[C@H]3CC[C@]12C	3	–	–	–	–	–
CC[C@@H](C(C)C)[C@@H](O)[C@H](O)[C@@H](C)[C@H]1CC[C@H]2[C@@H]3CC(=O)[C@H]4C[C@H](N)CC[C@]4(C)[C@H]3CC[C@]12C	23	–	–	–	–	–
CC[C@@H](C(C)C)[C@H](O)[C@@H](O)[C@@H](C)[C@H]1CC[C@H]2[C@@H]3COC(=O)[C@H]4C[C@H](N=[N+]=[N-])CC[C@]4(C)[C@H]3CC[C@]12C	48	–	–	–	17	–
CC[C@@H](C(C)C)[C@@H](O)[C@H](O)[C@@H](C)[C@H]1CC[C@H]2[C@@H]3COC(=O)[C@H]4C[C@H](N=[N+]=[N-])CC[C@]4(C)[C@H]3CC[C@]12C	106	37	74	86	94	44
CC[C@@H](C(C)C)[C@H](O)[C@@H](O)[C@@H](C)[C@H]1CC[C@H]2[C@@H]3CC(=O)[C@H]4C[C@H](N=[N+]=[N-])CC[C@]4(C)[C@H]3CC[C@]12C	1	–	–	–	–	–
CC[C@@H](C(C)C)[C@@H](O)[C@H](O)[C@@H](C)[C@H]1CC[C@H]2[C@@H]3CC(=O)[C@H]4C[C@H](N=[N+]=[N-])CC[C@]4(C)[C@H]3CC[C@]12C	75	17	24	30	64	–
